Test results taken from BindingDB's records for doi:10.1021/jm5003759 (University of Copenhagen, 2014).
pKi: −log10 of the molar value.

Target: T1, 5-hydroxytryptamine receptor 2C (Homo sapiens, UniProt P28335)
T1 sequence (P28335 whole entry): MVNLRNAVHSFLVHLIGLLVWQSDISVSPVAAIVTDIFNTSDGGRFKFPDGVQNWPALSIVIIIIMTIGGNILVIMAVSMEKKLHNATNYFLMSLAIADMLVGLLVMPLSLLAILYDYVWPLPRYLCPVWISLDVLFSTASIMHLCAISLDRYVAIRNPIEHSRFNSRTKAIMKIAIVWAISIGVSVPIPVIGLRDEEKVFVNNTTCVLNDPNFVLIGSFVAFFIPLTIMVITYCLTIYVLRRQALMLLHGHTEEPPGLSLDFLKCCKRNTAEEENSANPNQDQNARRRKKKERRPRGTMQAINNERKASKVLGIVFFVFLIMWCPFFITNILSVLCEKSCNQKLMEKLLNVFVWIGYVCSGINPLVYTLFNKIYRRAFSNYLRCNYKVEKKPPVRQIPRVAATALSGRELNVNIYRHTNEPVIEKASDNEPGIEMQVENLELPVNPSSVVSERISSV
Test: Displacement of [3H]5-HT from human recombinant 5-HT2C receptor expressed in mouse 3T3 cells

**Q.** CNc1cc(NS(=O)(=O)c2ccc(N)cc2)cc(NC)n1 [Ro-63-0563] was tested. Which pKi did it give?
**A.** 5.69
